This note sets out measurements from patent US7211424B1, “Mammalian Subtilisin/kexin isozyme SKI-1: a proprotein convertase with a unique cleavage specificity” (Institut de Recherches Cliniques de Montreal, priority 1999, dated 2007).

*1 amine or outer side, *2 acyl side, *3 side chain or, on linkers, in order; H or OH if unused. Where a SMILES comes first, the peptide text is derived from it. [ ]: non-standard residue; d: D form. The star is where a group is joined. Sta = CC(C)C[C@H](N)[C@@H](O)CC(=O)O; Isovaleryl = CC(C)CC(=O)*; CO = O=C([*:1])[*:2]

One data set addresses T1, BTMD-SKI-1 (Homo sapiens, UniProt Q14703).
T1 sequence (Q14703 187-997 limits assumed): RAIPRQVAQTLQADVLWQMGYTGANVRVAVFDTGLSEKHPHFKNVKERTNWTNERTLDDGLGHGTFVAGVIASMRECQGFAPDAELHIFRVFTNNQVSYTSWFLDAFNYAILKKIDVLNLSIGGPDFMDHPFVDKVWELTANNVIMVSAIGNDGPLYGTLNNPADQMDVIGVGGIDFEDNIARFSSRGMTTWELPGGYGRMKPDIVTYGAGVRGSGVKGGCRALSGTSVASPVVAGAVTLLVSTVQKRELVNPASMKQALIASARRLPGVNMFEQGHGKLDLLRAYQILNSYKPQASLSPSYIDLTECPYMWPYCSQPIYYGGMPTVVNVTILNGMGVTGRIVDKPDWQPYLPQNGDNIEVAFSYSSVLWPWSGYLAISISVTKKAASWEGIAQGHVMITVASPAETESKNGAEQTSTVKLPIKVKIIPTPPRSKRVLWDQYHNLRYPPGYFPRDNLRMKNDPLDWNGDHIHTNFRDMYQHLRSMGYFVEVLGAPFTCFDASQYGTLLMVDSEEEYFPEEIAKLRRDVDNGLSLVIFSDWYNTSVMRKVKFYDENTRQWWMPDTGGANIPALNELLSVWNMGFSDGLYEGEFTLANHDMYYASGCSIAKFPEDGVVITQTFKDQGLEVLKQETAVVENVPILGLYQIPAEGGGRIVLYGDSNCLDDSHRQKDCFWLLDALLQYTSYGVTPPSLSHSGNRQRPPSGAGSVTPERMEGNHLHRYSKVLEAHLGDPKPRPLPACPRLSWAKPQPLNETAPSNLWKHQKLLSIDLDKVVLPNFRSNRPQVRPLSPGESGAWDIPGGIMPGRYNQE
T1 sequence (Q14703 17-137 partner limits assumed): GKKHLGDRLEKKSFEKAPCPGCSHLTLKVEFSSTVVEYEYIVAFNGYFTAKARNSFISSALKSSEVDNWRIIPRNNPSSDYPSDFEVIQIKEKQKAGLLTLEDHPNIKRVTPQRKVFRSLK
As to the kind of experiment: biochemical. The format is biochemical.

Another data set deals with T2, SKI-1 (Homo sapiens, UniProt Q14703).
T2 sequence (Q14703 187-1052): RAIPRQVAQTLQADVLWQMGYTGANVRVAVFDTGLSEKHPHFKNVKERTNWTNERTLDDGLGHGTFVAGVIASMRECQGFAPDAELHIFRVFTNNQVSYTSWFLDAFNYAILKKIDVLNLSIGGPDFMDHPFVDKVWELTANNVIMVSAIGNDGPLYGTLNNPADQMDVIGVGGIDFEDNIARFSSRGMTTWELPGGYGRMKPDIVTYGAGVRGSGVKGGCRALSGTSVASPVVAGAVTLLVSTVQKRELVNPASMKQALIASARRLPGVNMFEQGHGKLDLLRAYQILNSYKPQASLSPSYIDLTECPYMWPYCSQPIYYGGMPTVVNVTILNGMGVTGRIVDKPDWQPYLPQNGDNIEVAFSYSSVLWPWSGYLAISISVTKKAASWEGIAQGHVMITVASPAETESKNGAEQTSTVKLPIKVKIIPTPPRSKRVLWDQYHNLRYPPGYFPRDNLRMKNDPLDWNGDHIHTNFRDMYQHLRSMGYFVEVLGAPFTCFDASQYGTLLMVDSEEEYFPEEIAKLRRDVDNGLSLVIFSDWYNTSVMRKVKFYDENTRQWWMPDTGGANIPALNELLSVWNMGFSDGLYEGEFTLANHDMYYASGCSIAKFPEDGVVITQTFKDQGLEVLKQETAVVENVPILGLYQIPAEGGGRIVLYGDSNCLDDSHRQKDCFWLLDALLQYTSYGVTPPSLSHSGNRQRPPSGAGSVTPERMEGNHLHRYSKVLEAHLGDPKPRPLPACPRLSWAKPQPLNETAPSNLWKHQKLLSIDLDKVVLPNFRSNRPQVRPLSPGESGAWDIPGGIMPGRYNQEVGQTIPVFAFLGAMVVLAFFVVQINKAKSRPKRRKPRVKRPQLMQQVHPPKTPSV
The format is cell-based. On the set-up: The VV recombinant of full-length hSKI-1 has been described (10); expressed in transfected cells; host or cells: COS-7 cells co-infected with vv:BDNF and vv:SKI-1 (with vv:WT, vv:PIT or vv:PDX).

Data set [1] deals with T3, peptide XI, Q-hSKI-1 (134-142): Abz-RSLKYAESD-Y(NO2)-A.
T3 chain: XRSLKYAESDXA

Data set [2] deals with T4, peptide X, Q-hSKI-1 (132-142): Abz-VFRSLKYAESD-Y(NO2)-A.
T4 chain: XVFRSLKYAESDXA

Where [3] appears, read: read-out: Hydrolysis of SREBP-2 peptide (% of control).

Turning to `O=S(=O)([O-])[O-].[Zn+2]` [ZnSO4], at BTMD-SKI-1, the “Hydrolysis of SREBP-2 peptide (% of control)” value (shortened to “Hydrolysis … (% of control)”) was 0 % of control. For `[Cl-].[Cl-].[Co+2]` [CoCl2], the “Hydrolysis … (% of control)” value at BTMD-SKI-1 is listed as 100 % of control. On to `CC(=O)N[C@@H](CC(C)C)C(=O)N[C@@H](CC(C)C)C(=O)N[C@H](C=O)CCCNC(=N)N` [Leupeptin], for which the remaining activity at 1000 µM on BTMD-SKI-1 (setting [3]) came out at 100%.

As for `O=S(=O)([O-])[O-].[Ni+2]` [NiSO4], the “Hydrolysis … (% of control)” value on BTMD-SKI-1 is given as 93 % of control. As to cystatin, on BTMD-SKI-1, the “Hydrolysis … (% of control)” value was 100 % of control. For the molecule `CC(C)C[C@H](NC(=O)[C@@H](NC(=O)N[C@@H](Cc1ccccc1)C(=O)O)[C@@H]1CCN=C(N)N1)C(=O)N[C@H](C=O)Cc1ccccc1` [Chymostatin], the remaining activity at 1000 µM on BTMD-SKI-1 (setting [3]) worked out at 100%. For `Cc1ccc(S(=O)(=O)N[C@@H](Cc2ccccc2)C(=O)CCl)cc1` [TPCK], on BTMD-SKI-1, the “Hydrolysis … (% of control)” value is 71 % of control. As for `Cc1ccc(S(=O)(=O)NC(CCCCN)C(=O)CCl)cc1` (stereo not drawn) [TLCK], the “Hydrolysis … (% of control)” value on BTMD-SKI-1 is listed as 100 % of control. Consider `CC(C)[C@H](NC(=O)[C@H](CCCNC(=N)N)NC(=O)N[C@@H](Cc1ccccc1)C(=O)O)C(=O)N[C@H](C=O)CCCNC(=N)N` [Antipain, antipain] ({Phe-CO}-Arg-Val-Arg-aldehyde), for which, at BTMD-SKI-1 (setting [3]), the remaining activity at 1000 µM worked out at 100%. Consider `[Cl-].[Cl-].[Mg+2]` [MgCl2], for which the “Hydrolysis … (% of control)” value at BTMD-SKI-1 is on record as 100 % of control. On the same count and under the same terms, next, `CC(C)C[C@H](NC(=O)[C@H]1O[C@@H]1C(=O)O)C(=O)NCCCCN=C(N)N` [Peptide E-64]: 100 % of control.

α1-antitrypsin Pittsburgh [α1-PIT]: in the data set with SKI-1, the “level of the 28 kDa BDNF product” value is recorded as “neither α1-PIT nor α1-PDX affect the level of the 28 kDa product”.

On to `Nc1ccc(CS(=O)(=O)F)cc1` [APMSF, para-aminophenylmethylsulfonyl fluoride], for which the “Hydrolysis … (% of control)” value on BTMD-SKI-1 was 95 % of control. For `O=C(O)CN(CCOCCOCCN(CC(=O)O)CC(=O)O)CC(=O)O` [EGTA], the “Hydrolysis … (% of control)” value at BTMD-SKI-1 is on record as 15 % of control. Same read-out and setting: the figure for `O=S(=O)([O-])[O-].[Cu+2]` [CuSO4] is 0 % of control. In the case of `CC(C)CC(=O)N[C@H](C(=O)N[C@H](C(=O)N[C@@H](CC(C)C)[C@@H](O)CC(=O)N[C@@H](C)C(=O)N[C@@H](CC(C)C)[C@@H](O)CC(=O)O)C(C)C)C(C)C` [Pepstatin, pepstatin] (Isovaleryl-VV[Sta]A[Sta]-OH), the remaining activity at 100 µM at BTMD-SKI-1 (setting [3]) was determined as 97%. As for `O[C@H](CS)[C@H](O)CS` (racemic) [Dithiothreitol], the remaining activity at 10000 µM on BTMD-SKI-1 (setting [3]) turned out to be 92%.

B1: 98 kDa shed form of SKI-1 (sSKI-1) (protein)
chain: RAIPRQVAQTLQADVLWQMGYTGANVRVAVFDTGLSEKHPHFKNVKERTNWTNERTLDDGLGHGTFVAGVIASMRECQGFAPDAELHIFRVFTNNQVSYTSWFLDAFNYAILKKIDVLNLSIGGPDFMDHPFVDKVWELTANNVIMVSAIGNDGPLYGTLNNPADQMDVIGVGGIDFEDNIARFSSRGMTTWELPGGYGRMKPDIVTYGAGVRGSGVKGGCRALSGTSVASPVVAGAVTLLVSTVQKRELVNPASMKQALIASARRLPGVNMFEQGHGKLDLLRAYQILNSYKPQASLSPSYIDLTECPYMWPYCSQPIYYGGMPTVVNVTILNGMGVTGRIVDKPDWQPYLPQNGDNIEVAFSYSSVLWPWSGYLAISISVTKKAASWEGIAQGHVMITVASPAETESKNGAEQTSTVKLPIKVKIIPTPPRSKRVLWDQYHNLRYPPGYFPRDNLRMKNDPLDWNGDHIHTNFRDMYQHLRSMGYFVEVLGAPFTCFDASQYGTLLMVDSEEEYFPEEIAKLRRDVDNGLSLVIFSDWYNTSVMRKVKFYDENTRQWWMPDTGGANIPALNELLSVWNMGFSDGLYEGEFTLANHDMYYASGCSIAKFPEDGVVITQTFKDQGLEVLKQETAVVENVPILGLYQIPAEGGGRIVLYGDSNCLDDSHRQKDCFWLLDALLQYTSYGVTPPSLSHSGNRQRPPSGAGSVTPERMEGNHLHRYSKVLEAHLGDPKPRPLPACPRLSWAKPQPLNETAPSNLWKHQKLLSIDLDKVVLPNFRSNRPQVRPLSPGESGAWDIPGGIMPGRYNQ
For B1, in data set [1], the Km(app) worked out at 8.7 µM; the Vmax(app) turned out to be 56.9 µmol/h; the Vmax(app)/Km(app) was 6.5 h^-1L^-1; the “cleavage of quenched fluorogenic peptide (mass spectrometry)” value is recorded as “both peptides were cleaved at the RSLK↓ (SEQ. ID. NO. 100) site by shed SKI-1 derived from HK293 cell transfects, but not by medium obtained from HK293 empty vector transfectants”. In addition, in data set [2], the Km(app) turned out to be 31.3 µM; the Vmax(app) came to 34 µmol/h; the Vmax(app)/Km(app) was 1.1 h^-1L^-1; the “cleavage of quenched fluorogenic peptide (mass spectrometry)” value is reported as “both peptides were cleaved at the RSLK↓ (SEQ. ID. NO. 100) site by shed SKI-1 derived from HK293 cell transfects, but not by medium obtained from HK293 empty vector transfectants”.

B2: soya bean trypsin inhibitor (protein, UniProt P01070 25-205, looked up)
Trypsin inhibitor A: DFVLDNEGNPLENGGTYYILSDITAFGGIRAAPTGNERCPLTVVQSRNELDKGIGTIISSPYRIRFIAEGHPLSLKFDSFAVIMLCVGIPTEWSVVEDLPEGPAVKIGENKDAMDGWFRLERVSDDEFNNYKLVFCPQQAEDDKCGDIGISIDHDDGTRRLVVSKNKPLVVQFQKLDKESL
As to B2, the “Hydrolysis … (% of control)” value in the data set with BTMD-SKI-1 was 100 % of control.

B3: proBDNF: 32 kDa human pro-brain-derived neurotrophic factor, precursor substrate (protein, UniProt P23560 19-247, looked up)
pro-form: APMKEANIRGQGGLAYPGVRTHGTLESVNGPKAGSRGLTSLADTFEHVIEELLDEDQKVRPNEENNKDADLYTSRVMLSSQVPLEPPLLFLLEEYKNYLDAANMSMRVRRHSDPARRGELSVCDSISEWVTAADKKTAVDMSGGTVTVLEKVPVSKGQLKQYFYETKCNPMGYTKEGCRGIDKRHWNSQCRTTQSYVRALTMDSKKRIGWRFIRIDTSCVCTLTIKRGR
modifications: pro-form
notes: 32 kDa human pro-brain-derived neurotrophic factor, precursor substrate
B3: the “intracellular cleavage of precursor by SKI-1” value with SKI-1 was “could be cleaved intracellularly by SKI-1”.
